The subject of series [1] is Firefly phosphodiesterase enzyme. In words: PDE inhibitory activity, firefly lantern. The format is biochemical, firefly (Photinus pyralis). The note with it: for phosphodiesterase inhibition: FIG. 6. The source says:
(§1) The ability of any compound (A) to inhibit phosphodiesterase (PDE) activity in broken cell preparations of firefly lantern or in pest tissues can be determined either (1) by measuring the decrease in rate of hydrolysis of an added amount of cyclic AMP by PDE (see Methods Section of Nathanson et al., Mol. Pharmacol. 12:390-398 (1975)), or (2) by measuring the rate of accumulation of one of the breakdown products of cyclic AMP, such as 5'-AMP or adenosine (see method of Filburn et al., Anal. Biochem. 52:505-516 (1973)). Both of these are herein incorporated by reference.
Generally, any compound capable of maximally inhibiting PDE activity by at least 50% (Vmax -inhibition) and preferably by at least 80% is preferred. Also, in terms of the concentration of the compound required for such inhibition, this can be quantitated by determining the IC 50-inhibition, i.e., the concentration of the compound required to cause 50% of the maximal inhibitioncaused by the compound at any concentration.
(§2) In this assay (modified slightly from Filburn and Karn (Analyt. Biochem. 52: 505-516 (1973)), the rate of hydrolysis of labeled cyclic AMP to 5'-AMP by PDE is measured by converting the breakdown product (5'-AMP) to adenosine, which can be separated and measured by alumina chromatography. Specifically, tissue from either the firefly lantern or pest is homogenized (10-20 mg/ml) in 6 mM Tris-maleate buffer, pH 7.4. The hydrolysis reaction is run in test tubes containing (in 100 microliters): 80 mM Tris maleate, pH 7.4; 6 mM MgSO4; 10 pmoles tritiated cyclic AMP (2×10^4 to 2×10^5 cpm, depending upon the activity of the enzyme); 20 microliters of tissue homogenate; and various concentrations of the compound to be tested. In those cases in which the compound is insoluble in aqueous solution at pH 7.4, pH can be varied between pH 6.5 and 9.0 for optimization of solubility. In addition, the test compound can be initially solubilized in either 100% methanol or DMSO and diluted to a final concentration of 10% methanol or DMSO in the assay (in which case solvent controls are run in parallel).
The reaction is started by the addition of homogenate, run for 4 min at 37° C., and terminated by boiling for 90 sec. The 5'AMP formed is then converted to adenosine by the addition of 20 microliters of an aqueous solution of 0.5 Units/ml of 5'-nucleotidase (Sigma, Grade IV), vortexed, and incubated for 30 minutes at 37° C. The second reaction is stopped by addition of 0.4 ml of 0.1N ammonium acetate, pH 4.0. The entire sample is then applied to a 0.5×8 cm column containing neutral alumina prewashed with 20 ml of 0.1N ammonium acetate, pH 4.0. The void volume is discarded and the column is then eluted with 2 ml of 0.1N ammonium acetate, pH 4.0, the eluent collected and counted by liquid scintillation spectrometry. Activity is cpms above that due to a blank which was initially incubated for 0 seconds in the first reaction.

Series [2] has as its system cyclic AMP content of intact nerve cords of tobacco hornworms. In words: Cyclic AMP content of intact nerve cords incubated in vitro. The format is cell-based, tobacco hornworm (Manducca sexta). The settings on record: 100 micromoles/liter of IBMX, 5 minutes in vitro; without PDE inhibitor 8.9±1.6.
For series [3], the system named is phosphodiesterase enzyme of hornworm nerve cord. Kind of series: PDE inhibitory activity, hornworm nerve tissue. The class given is biochemical, tobacco hornworm (Manducca sexta). The note with it: FIG. 8.
Text: as §1, §2
The reaction is started by the addition of homogenate, run for 4 min at 37° C., and terminated by boiling for 90 sec. […] The void volume is discarded and the column is then eluted with 2 ml of 0.1N ammonium acetate, pH 4.0, the eluent collected and counted by liquid scintillation spectrometry. […]

The subject of the next series is Manducca eggs. Kind of series: Ovacidal test (eggs dipped in drug solutions). The format is in vivo, Manducca sexta. The note with it: IBMX 0.1 g/100 ml alone (C* = no agonist); control without IBMX 80. The protocol: In some cases, test agents were tested for ovacidal activity by dipping groups of 10-50 Manducca eggs in drug solutions for 60 seconds and then determining the percentage of eggs which produced viable larvae. A compound or synergist with active ovacidal activity was one which decreased the percentage of eggs hatched, relative to control.

Series [4] relates to tobacco hornworms (Manducca sexta). In words: In vivo leaf test (feeding on sprayed tomato leaves).
The test system of series [5] is PDE in tissue homogenate from tobacco hornworm nerve cord. In words: Cyclic AMP analogue remaining after incubation with nerve cord homogenate. The format is in vitro ADME, tobacco hornworm (Manducca sexta). The settings on record: IBMX 0.1 mM; 4 hours in vitro; FIG. 20. As to the method: It has been previously shown, above, that PDE inhibition can increase the concentration of cyclic AMP in insect tissue. […] In order to do this, a fixed amount of butyl-benzylthio cyclic AMP was incubated in vitro for 4 hours in the presence of a tissue homogenate from tobacco hornworm nerve cord. In some tubes, IBMX (0.1 mM) was added to inhibit PDE. After the incubation, the amount of butyl-benzylthio cyclic AMP remaining was measured by protein binding assay (Brown et al., supra), using a standard curve based upon butyl-benzylthio cyclic AMP.

Series [6] in a line: Level of PDE inhibitor compound in insects in vivo. The note with it: feeding 72 hours on tomato leaves treated with a 1% spray of theophylline; read-out: internal concentration within the insects. On the set-up: species or system tobacco hornworms. The protocol:
To determine this, tobacco hornworms were allowed to feed on tomato leaves treated with a 1% spray of theophylline. This concentration was chosen since it is an amount which, by itself, inhibits feeding in the tobacco hornworm (see FIG. 13). After 72 hours, worms (alive or dead) were removed, quickly rinsed of any compound adhering to their outside cuticle, and then homogenized. The homogenate was centrifuged at 2000×g for 5 minutes and the supernatant was assayed for theophylline concentration by a standard immunoenzymatic procedure (Emit-aad® Theophylline Assay, Syva Company, Palo Alto, Calif.). By this procedure, the internal concentration within the insects was determined to be 4.0 mM. From FIGS. 6,7 or 8 it will be seen that this concentration of theophylline is sufficient to cause at least 70% inhibition of PDE enzyme activity in vitro. The correspondence between in vitro and in vivo results is remarkably close and serves to further support the invention.

The source of these data is patent US4902690A, “Pest controlling compositions” (The General Hospital Corporation, priority 1988, dated 1990).

As to `CC(C)Cn1c(=O)n(C)c(=O)c2[nH]cnc21` [IBMX, isobutylmethylxanthine], the “phosphodiesterase inhibition” value in series [1] is “more potent inhibitor of the enzyme”. For the same compound, the “cyclic AMP content of hornworm nerve cord” value in series [2] is 21.4 ± 0.8 pmol/mg. In addition, the “pattern of PDE inhibition” value in series [3] is on record as “quite similar to that in the firefly light organ”. In addition, in the series with Manducca eggs, the “% Living Larvae” value was 90%. Further, in series [4] (0.1% of each compound, FIG. 11), the “state of the leaf 72 hours after treatment” value is on record as “almost entirely consumed”. Further, the “IBMX concentrations at which IBMX itself acted to inhibit feeding” value in series [4] (FIG. 12) is 0.4-5 gm/b 100 ml. Further, the “IBMX concentrations with no effect by itself and no increase of DDCDM activity” value in series [4] (FIG. 12, DDCDM 0.1%) was “less than 0.001 gm/100 ml”. Further, the “relative antifeeding potency” value in series [4] (FIG. 13, dose sprayed on tomato leaves) is given as “more potent than theophylline”. In addition, the “antifeeding activity of the compound by itself” value in series [4] (FIGS. 10, 13, 17, Table 8) was “very small inhibitory effect by itself”.
For the compound `CCCCNc1ncnc2c1nc(SCc1ccccc1)n2[C@@H]1O[C@@H]2COP(=O)(O)O[C@H]2[C@H]1O` [n-butylaminobenzylthio cyclic AMP, 6-n-butylamino-8-benzylthio-cyclic AMP], the “amount of butyl-benzylthio cyclic AMP present after 4 hours, effect of addition of IBMX” value in series [5] is recorded as “more than doubled”. Also, in series [4] (concentration of 1%, FIGS. 18, 19), the “antifeeding activity in the absence of IBMX” value is “some antifeeding activity”.
Turning to `Cn1c(=O)c2[nH]cnc2n(C)c1=O` [theophylline], the “phosphodiesterase inhibition” value in series [1] is “active as phosphodiesterase inhibitors”. Besides, in series [1] (theophylline 4.0 mM, read from FIGS. 6,7 or 8 (firefly or hornworm)), the “inhibition of PDE enzyme activity in vitro” value is reported as “at least 70%”. The concentration in series [6] is 4000 µM. Moreover, in series [3], the “pattern of PDE inhibition” value is “quite similar to that in the firefly light organ”. Besides, the “% Leaf Remaining (increase over control)” value in series [4] (1% Theophylline alone) turned out to be 11%.
